# Where two headings read alike, the source gives them in different places. Positions of bridges follow the written chain, without caps; N, C: chain ends. Residues, ends and D or L forms follow the SMILES beside them. *: point of attachment. Ms = CS(=O)(=O)*
# Tests used:
# HMVEC = type: cell-based, human; conditions: 3 h
# Experimental: (§1) N—Ac-CHAVC-NH2 (SEQ ID NO:10) and the control peptide N—Ac-CHGVC-NH2 (SEQ ID NO:11) were evaluated for possible cytotoxic effects on human microvascular endothelial (HMVEC; Clonetics), human umbilical vein endothelial (HUVEC; ATCC #CRL-1730), IAFp2 (human fibroblast cell line; Institute Armand-Frapier, Montreal, Quebec), WI-38 (human fibroblast cell line; ATCC #CCL-75), MDA-MB231 (human breast cancer cell line; ATCC #HTB-26), and PC-3 (human prostate cancer cell line; ATCC #CRL-1435) cells utilizing the MTT assay (Plumb et al., Cancer Res. 49:4435-4440, 1989). Neither of the peptides was cytotoxic at concentrations up to and including 100 μM. Similarly, neither of the peptides was capable of inhibiting the proliferation of the above cell lines at concentrations up to 100 μM, as judged by ^3H-thymidine incorporation assays.
# HUVEC = type: cell-based, human; conditions: 3 h
# Experimental: as §1
# IAFp2 = type: cell-based, human; conditions: 3 h
# Experimental: as §1
# MDA-MB231 [1] = type: cell-based, human; conditions: 3 h
# Experimental: as §1
# PC-3 [2] = type: cell-based, human; conditions: 3 h
# Experimental: as §1
# WI-38 = type: cell-based, human; conditions: 3 h
# Experimental: as §1
# MDA-MB231 [3] = assay: Cytotoxicity, MTT assay, MDA-MB231; type: cell-based, human
# Experimental: as §1
# PC-3 [4] = assay: Cytotoxicity, MTT assay, PC-3; type: cell-based, human
# Experimental: as §1
# N-cadherin = target: T1, N-cadherin (Gallus gallus, UniProt P10288); assay: Neurite outgrowth inhibition, rat neurons (Example 21); type: cell-based; conditions: read-out: % Inhibition of neurite outgrowth; 250 μg/mL
# T1 construct: expressed in transfected cells; host or cells: 3T3 fibroblasts (monolayer)
# T1 sequence (P10288 165-912): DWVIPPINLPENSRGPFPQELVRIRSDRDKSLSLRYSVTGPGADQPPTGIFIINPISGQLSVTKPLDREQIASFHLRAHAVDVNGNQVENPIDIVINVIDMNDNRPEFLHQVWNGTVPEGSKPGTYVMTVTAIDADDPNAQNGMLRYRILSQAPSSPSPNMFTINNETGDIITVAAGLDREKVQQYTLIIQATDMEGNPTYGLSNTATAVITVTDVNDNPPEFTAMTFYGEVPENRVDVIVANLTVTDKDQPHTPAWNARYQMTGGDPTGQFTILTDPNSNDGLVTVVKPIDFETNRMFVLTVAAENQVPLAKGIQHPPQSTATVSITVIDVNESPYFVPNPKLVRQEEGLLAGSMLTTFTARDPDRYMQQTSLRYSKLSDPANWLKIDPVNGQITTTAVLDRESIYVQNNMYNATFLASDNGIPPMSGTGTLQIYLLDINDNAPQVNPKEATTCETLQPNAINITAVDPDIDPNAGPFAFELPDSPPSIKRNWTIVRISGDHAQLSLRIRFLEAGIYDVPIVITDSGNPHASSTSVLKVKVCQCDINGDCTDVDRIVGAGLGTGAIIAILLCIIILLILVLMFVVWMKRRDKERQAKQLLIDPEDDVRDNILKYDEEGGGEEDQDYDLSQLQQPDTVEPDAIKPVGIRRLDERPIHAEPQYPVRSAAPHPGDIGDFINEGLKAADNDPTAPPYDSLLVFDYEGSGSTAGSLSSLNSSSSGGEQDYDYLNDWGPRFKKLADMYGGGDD
# chick N-cadherin = target: T2, chick N-cadherin (Gallus gallus, UniProt P10288); assay: Neurite outgrowth of rat cerebellar neurons on N-cadherin expressing 3T3 monolayers (Example 15); type: cell-based; conditions: Tables 8 and 9
# T2 construct: expressed in transfected cells; host or cells: 3T3 fibroblasts (monolayer); rat post-natal day 2-3 cerebellar neurons plated on top
# T2 sequence (P10288 165-912): T1 sequence (P10288 165-912)
# Experimental: Cell culture and neurite outgrowth assays. Co-cultures of cerebellar neurons on monolayers of control 3T3 cells and monolayers of transfected 3T3 cells that express physiological levels of chick N-cadherin or human L1 were established as previously described (Williams et al., Neuron 13:583-594, 1994). In brief, 80,000 3T3 cells (control and transfected) were plated into individual chambers of an eight-chamber tissue culture slide coated with polylysine and fibronectin and cultured in DMEM/10% FCS. After 24 hours, when confluent monolayers had formed, the medium was removed and 3000 cerebellar neurons isolated from post-natal day 2-3 rats were plated into each well in SATO media (Doherty et al., Nature 343:464-466, 1990) supplemented with 2% FCS. All of the test peptides were added immediately before the neurons as a 2× stock prepared in SATO/2% FCS. The co-cultures were maintained for 16-18 hours, at which time they were fixed and immunostained for GAP-43 which is present only in the neurons and delineates the neuritic processes. The mean length of the longest neurite per cell was measured for 150-200 neurons sampled in replicate cultures as previously described (Williams et al., Neuron 13:583-594, 1994). […] Dose-response curves were evaluated and the EC50 values determined.
# [5] = tested on: Madin Darby canine kidney (MDCK) cells; type: cell-based; conditions: 18 h
Compound,IC50 (HMVEC) [µM],IC50 (IAFp2) [µM],IC50 (MDA-MB231 [1]) [µM],IC50 (PC-3 [2]) [µM],inhibition at 250 µg/mL (N-cadherin) [%],"inhibitory activity on N-cadherin dependent neurite outgrowth, structure/activity statements (chick N-cadherin; listed as H-CAHAVDIC-NH2)","inhibitory activity on N-cadherin dependent neurite outgrowth, structure/activity statements (chick N-cadherin; listed as compound 15)",IC50 (HUVEC) [µM],IC50 (WI-38) [µM],IC50 (MDA-MB231 [3]) [µM],IC50 (PC-3 [4]) [µM],EC50 [5] [µM]
CC(=O)N[C@H]1CSSC[C@@H](C(N)=O)NC(=O)[C@H](CO)NC(=O)[C@H](CO)NC(=O)[C@H](C(C)C)NC(=O)CNC(=O)[C@H](Cc2c[nH]cn2)NC(=O)[C@H](CO)NC1=O (Ac-CSHGVSSC-NH2; disulfide 1-8),> 100,> 100,> 100,> 100,0,–,–,> 100,> 100,> 100,> 100,–
CC[C@H](C)[C@@H]1NC(=O)[C@H](CC(=O)O)NC(=O)[C@H](C(C)C)NC(=O)[C@H](C)NC(=O)[C@H](Cc2c[nH]cn2)NC(=O)[C@H](C)NC(=O)[C@@H](N)CSSC[C@@H](C(N)=O)NC1=O (H-CAHAVDIC-NH2; disulfide 1-8),> 100,> 100,> 100,> 100,0,total loss of activity,lost activity,> 100,> 100,> 100,> 100,–
CC(C)[C@@H]1NC(=O)[C@H](C)NC(=O)[C@H](Cc2c[nH]cn2)NC(=O)[C@@H](NS(C)(=O)=O)CSSC[C@@H](C(=O)N[C@@H](Cc2ccc(O)cc2)C(N)=O)NC1=O [CH3—SO2—NH—CHAVCY—NH2] (Ms-CHAVCY-NH2; disulfide 1-5),–,–,–,–,–,–,–,–,–,–,–,140

# The next lines start with results.
IC50 (HMVEC) [µM],IC50 (IAFp2) [µM],IC50 (MDA-MB231 [1]) [µM],IC50 (PC-3 [2]) [µM],inhibition at 250 µg/mL (N-cadherin) [%],"inhibitory activity on N-cadherin dependent neurite outgrowth, structure/activity statements (chick N-cadherin; listed as H-CAHAVDIC-NH2)","inhibitory activity on N-cadherin dependent neurite outgrowth, structure/activity statements (chick N-cadherin; listed as compound 15)",Compound,IC50 (HUVEC) [µM],IC50 (WI-38) [µM],IC50 (MDA-MB231 [3]) [µM],IC50 (PC-3 [4]) [µM],EC50 [5] [µM]
> 100,> 100,> 100,> 100,0,–,–,CC[C@H](C)[C@@H]1NC(=O)[C@H](CC(=O)O)NC(=O)[C@H](C(C)C)NC(=O)CNC(=O)[C@H](Cc2c[nH]cn2)NC(=O)[C@H](C)NC(=O)[C@@H](N)CSSC[C@@H](C(N)=O)NC1=O (H-CAHGVDIC-NH2; disulfide 1-8),> 100,> 100,> 100,> 100,–
> 100,> 100,> 100,> 100,0,–,–,"CC(C)[C@@H]1NC(=O)[C@H](C)NC(=O)[C@H](Cc2c[nH]cn2)NC(=O)[C@H](C)NC(=O)[C@@H](N)CSSC[C@@H](C(N)=O)NC(=O)[C@H](CC(=O)O)NC1=O [H—CAHAVDC—NH2, H-Cys-Ala-His-Ala-Val-Asp-Cys-NH2] (H-CAHAVDC-NH2; disulfide 1-7)",> 100,> 100,> 100,> 100,–
> 100,> 100,> 100,> 100,0,–,–,CC(C)[C@@H]1NC(=O)CNC(=O)[C@H](Cc2c[nH]cn2)NC(=O)[C@H](C)NC(=O)[C@@H](N)CSSC[C@@H](C(N)=O)NC(=O)[C@H](CC(=O)O)NC1=O [H—CAHGVDC—NH2] (H-CAHGVDC-NH2; disulfide 1-7),> 100,> 100,> 100,> 100,–

# — patent publication US20040106545A1, “Compounds and methods for modulating cell adhesion” (priority 1996, published 2004)
